Experimental data from patent US20250171445A1, “DEUTERIUM-ENRICHED PIPERIDINYL-METHYL-PURINE AMINE SALTS, CRYSTALLINE FORMS, AND THEIR USE IN TREATING MEDICAL DISEASES AND CONDITIONS” (K36 Therapeutics, Inc., priority 2023, published 2025).

Biological target: T1, recombinant human NSD2 (Homo sapiens, UniProt O96028)
T1 construct: (amino acids 2-end); His tag (N); host or cells: Sf9 insect cells
T1 sequence (O96028 2-1365 limits assumed): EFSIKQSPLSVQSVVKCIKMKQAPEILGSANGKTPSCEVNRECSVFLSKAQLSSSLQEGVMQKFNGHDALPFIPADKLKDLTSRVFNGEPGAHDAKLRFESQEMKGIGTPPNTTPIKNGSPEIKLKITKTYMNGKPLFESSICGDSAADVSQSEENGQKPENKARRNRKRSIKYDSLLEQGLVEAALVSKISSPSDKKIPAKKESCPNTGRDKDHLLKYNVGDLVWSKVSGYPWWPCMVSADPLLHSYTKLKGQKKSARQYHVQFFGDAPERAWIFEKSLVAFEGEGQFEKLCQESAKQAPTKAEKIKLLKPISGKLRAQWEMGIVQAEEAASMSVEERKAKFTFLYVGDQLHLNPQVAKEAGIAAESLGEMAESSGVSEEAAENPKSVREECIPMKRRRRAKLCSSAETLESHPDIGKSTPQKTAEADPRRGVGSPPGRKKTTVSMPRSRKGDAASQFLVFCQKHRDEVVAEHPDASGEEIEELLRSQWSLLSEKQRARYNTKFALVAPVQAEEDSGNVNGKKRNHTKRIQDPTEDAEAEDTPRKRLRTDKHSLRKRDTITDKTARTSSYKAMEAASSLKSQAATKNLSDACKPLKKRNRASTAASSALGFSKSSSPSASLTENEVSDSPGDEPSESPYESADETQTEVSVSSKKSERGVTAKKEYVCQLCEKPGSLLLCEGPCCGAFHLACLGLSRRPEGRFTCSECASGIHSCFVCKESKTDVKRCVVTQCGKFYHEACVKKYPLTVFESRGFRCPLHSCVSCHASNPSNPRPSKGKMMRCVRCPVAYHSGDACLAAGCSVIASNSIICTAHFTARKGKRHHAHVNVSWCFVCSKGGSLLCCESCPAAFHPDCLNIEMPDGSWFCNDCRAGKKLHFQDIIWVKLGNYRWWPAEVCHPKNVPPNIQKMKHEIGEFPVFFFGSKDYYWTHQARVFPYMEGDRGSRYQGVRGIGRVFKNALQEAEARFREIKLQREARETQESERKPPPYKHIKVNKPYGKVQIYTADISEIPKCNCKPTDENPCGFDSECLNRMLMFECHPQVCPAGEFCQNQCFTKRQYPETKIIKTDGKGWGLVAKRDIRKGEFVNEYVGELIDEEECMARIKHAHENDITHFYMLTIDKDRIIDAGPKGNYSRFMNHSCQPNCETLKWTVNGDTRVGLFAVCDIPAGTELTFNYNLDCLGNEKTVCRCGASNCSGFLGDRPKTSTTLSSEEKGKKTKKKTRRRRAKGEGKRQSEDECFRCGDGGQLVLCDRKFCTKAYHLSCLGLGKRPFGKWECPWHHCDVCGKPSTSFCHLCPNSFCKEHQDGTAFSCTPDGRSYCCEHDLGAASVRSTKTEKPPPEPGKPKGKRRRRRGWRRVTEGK
Assay: NSD2 inhibition assay (3H-SAM histone methyltransferase, oligonucleosome substrate)
Format: biochemical
Settings: recombinant human NSD2 (aa 2-end, His tag) 2 nM, chicken oligonucleosomes 0.05 mg/ml, 3H-SAM 1 μM, 1 hour at 30° C.
Description: The NSDS2 inhibitory activity of a compound can be evaluated using a NSD2 inhibition assay, such as the NSD2 inhibition assay described herein below.
A reaction mixture can be prepared by adding oligonucleosomes from Chicken (0.05 mg/ml) to freshly prepared reaction buffer containing 50 mM Tris-HCl (pH 8.5), 50 mM NaCl, 5 mM MgCl2, 0.01% Brij35, 1 mM DTT, and 1% DMSO followed by the addition of recombinant human NSD2, (amino acids 2-end) with N-terminal His tag (2 nM; GenBank Accession No. NM_001042424; MW=155.5 kDa; expressed in Sf9 insect cells) and gentle mixing. The test compound is diluted in DMSO, added to the reaction mixture in nanoliter amounts (using, e.g., Acoustic Technology (Echo 550, LabCyte Inc. Sunnyvale, CA)) and incubated for 20 minutes at room temperature. The reaction may be initiated by addition of S-Adenosyl-L-[methyl-3H]methionine (3H-SAM; 1 μM), and the mixture is then incubated for 1 hour at 30° C. The reaction mixture can be delivered to filter paper and the methylated substrate quantified by scintillation counting. Data analysis may be performed using Excel and GraphPad Prism software for IC50 curve fits. For additional information on the histone methyltransferase assay, see, for example, Horiuchi K Y, et al., “Assay Development for Histone Methyltransferases,” Assay Drug Dev Technol. 2013 May; 11(4):227-36.

- IC50: < 10 nM
SMILES: [2H]C([2H])([2H])Oc1cc(F)c(-c2cc(Cn3cnc4c(N)ncnc43)c(N3CCC[C@](N)([C@H](O)C(F)F)C3)cn2)cc1F
